Experimental data: patent publication US20230391756A1, “NEW COMPOUND” (JANSSEN PHARMACEUTICA NV, priority 2020, published 2023)

Legend:
[1] = tested on: NLRP3 inflammasome pathway (IL-1β); test: PBMC assay: IL-1β release after LPS stimulation; format: cell-based; details: human PBMCs, 100 ng/ml LPS for 6 hrs, MSD
Experimental: The activity of a compound according to the present invention can be assessed by in vitro methods.
(§1) Peripheral venous blood was collected from healthy individuals and human peripheral blood mononuclear cells (PBMCs) were isolated from blood by Ficoll-Histopaque (Sigma-Aldrich, A0561) density gradient centrifugation. After isolation, PBMCs were stored in liquid nitrogen for later use. Upon thawing, PBMC cell viability was determined in growth medium (RPMI media supplemented with 10% fetal bovine serum, 1% Pen-Strep and 1% L-glutamine). […] PBMCs were added at a density of 7.5×10^4 cells per well and incubated for 30 min in a 5% CO2 incubator at 37° C. LPS stimulation was performed by addition of 100 ng/ml LPS (final concentration, Invivogen, tlrl-smlps) for 6 hrs followed by collection of cellular supernatant and the analysis of IL-1β (μM) and TNF cytokines levels (μM) via MSD technology according to manufacturers' guidelines (MSD, K151A0H).

TNF = test: PBMC assay: TNF cytokine level after LPS stimulation; format: cell-based; details: human PBMCs, 100 ng/ml LPS for 6 hrs, MSD, read-out: TNFα EC50
Experimental: as §1

melting point	IC50 [1]	EC50 (TNF)	Compound
178.3 °C	464 nM	12200 nM	CC(C)n1nc(CC(=O)Nc2ccncn2)c(=O)c2ccc(C(F)(F)F)cc21 [F-22]
193.4 °C	275 nM	> 20000 nM	CCn1nc(CC(=O)Nc2ccc3nccn3n2)c(=O)c2ccc(C3CC3)cc21 [F-62]
188.2 °C	51 nM	2340 nM	CC(C)n1nc(CC(=O)Nc2ccc3nncn3n2)c(=O)c2ccc(C(C)(C)F)cc21 [F-147]
201.5 °C	1080 nM	> 20000 nM	CC(C)c1ccc2c(=O)c(CC(=O)N[C@H]3C[C@@](C)(O)C3)nn(C(C)C)c2c1 [F-26]
181.4 °C	220 nM	11400 nM	CC(C)c1ccc2c(=O)c(CC(=O)Nc3ccc4nncn4c3)nn(C(C)C)c2c1 [F-31]
241.6 °C	224 nM	16400 nM	CC(C)n1nc(CC(=O)Nc2ccc3nncn3n2)c(=O)c2ccc(Cl)cc21 [F-30]
179.8 °C	142 nM	4670 nM	CCC(C)n1nc(CC(=O)Nc2ccc3nncn3n2)c(=O)c2ccc(C(F)(F)F)cc21 (stereo not drawn) [F-146]
252.9 °C	147 nM	7840 nM	CCn1nc(CC(=O)Nc2ccc3nncn3n2)c(=O)c2ccc(C(C)(F)F)cc21 [F-70]
219.5 °C	> 20000 nM	> 20000 nM	CC(C)n1nc(CC(=O)Nc2nc3ccc(Br)cc3n2C)c(=O)c2ccc(C(F)(F)F)cc21 [F-93]
279.8 °C	200 nM	> 20000 nM	CCn1nc(CC(=O)Nc2ccc3nncn3c2)c(=O)c2ccc(C(C)(F)F)cc21 [F-68]
152.7 °C	239 nM	11000 nM	CC(C)n1nc(CC(=O)Nc2ccc3cncn3c2)c(=O)c2ccc(C(F)(F)F)cc21 [F-15]
190.1 °C	370 nM	15800 nM	CC(C)c1ccc2c(=O)c(CC(=O)Nc3ccc4nccn4n3)nn(C3CC3)c2c1 [F-58]
179.8 °C	7760 nM	17800 nM	CC(C)n1nc(CC(=O)Nc2ccc3nncn3c2)c(=O)c2ccc(C3CCC3)cc21 [F-42]
136.4 °C	1030 nM	14100 nM	CCn1nc(CC(=O)Nc2ccc3nncn3n2)c(=O)c2ccc(C3CCC3)cc21 [F-136]
214.1 °C	77 nM	4320 nM	CC(C)n1nc(CC(=O)Nc2ccc3nncn3n2)c(=O)c2ccc(C(C)(F)F)cc21 [F-145]
229.8 °C	> 20000 nM	> 20000 nM	CC(C)n1nc(CC(=O)Nc2nc3ccc(F)cc3n2C)c(=O)c2ccc(Br)cc21 [F-96]
244.6 °C	230 nM	> 20000 nM	O=C(Cc1nn(C2CC2)c2cc(Br)ccc2c1=O)Nc1ccc2nccn2n1 [F-66]
191.5 °C	2140 nM	> 20000 nM	CCn1nc(CC(=O)N[C@H]2C[C@@](C)(O)C2)c(=O)c2ccc(Cl)cc21 [F-25]
194.9 °C	230 nM	> 20000 nM	CC(C)n1nc(CC(=O)N[C@H]2C[C@@](C)(O)C2)c(=O)c2ccc(Cl)cc21 [F-28]
193 °C	350 nM	~12800 nM	CCn1nc(CC(=O)Nc2ccc3nccn3n2)c(=O)c2ccc(C(F)(F)F)cc21 [F-60]
280.2 °C	1450 nM	> 20000 nM	CCn1nc(CC(=O)Nc2cn3cnnc3cn2)c(=O)c2ccc(C(F)(F)F)cc21 [F-106]
221.9 °C	433 nM	> 20000 nM	CC(C)n1nc(CC(=O)Nc2ccc(=O)n(C)n2)c(=O)c2ccc(Br)cc21 [F-33]
254.3 °C	620 nM	> 20000 nM	CCn1nc(CC(=O)Nc2ccc3nncn3c2)c(=O)c2ccc(Cl)cc21 [F-27]
